“And” between values parts separate entries of the source, which are not always exact repeats. Equal values may be shown once.

One data set can be described thus: in vivo. On the set-up: species or system cynomolgus monkeys. The following applies: cynomolgus monkey, sc. The protocol:
Eleven adult female cynomolgus monkeys having regular and presumably ovulatory menstrual cycles were entered into the study. Body weights were determined monthly. Menstrual bleeding and spotting were recorded daily by visual inspection of external genitalia and insertion of vaginal swabs using a saline moistened cotton-tipped applicator, respectively. Blood samples were collected from femoral vessels and the serum stored for subsequent RIA of estradiol and progesterone. Coefficients of variation for these assays were: 7.4 and 11.1; and 7.0 and 10.9%, respectively, for within and between assays. The GnRH antagonist ([…]) used was Nal-Glu: [[…]. The design was progressive in that all eleven monkeys initially received […] at 0.05 mg/kg starting on day 2 of the menstrual cycle and continuing daily until results of the progesterone challenge test and estradiol levels in circulation indicated the need to raise the dose. Concurrently, a pair of progesterone-loaded silastic implants were inserted sc during […] treatment from day 20 and 30, and then removed. If withdrawal menses occurred during the next week, the individual Nal-Glu dose was raised to 0.1 mg/kg daily. On […] treatment day 50, the 10 day progesterone challenge test was repeated for all monkeys. […] Again, amenorrhea or withdrawal menses was recorded. […]

A further data set concerns pituitary-ovarian axis. The following applies: sufficient single dose; monkeys; cited from earlier work.
Data set [1] has as its system ovarian estrogen secretion. Nature of the data set: Part I dose-finding study: RIA of serum estradiol during 14 days of daily im treatment. It counts as in vivo, cynomolgus monkeys. As to conditions: 0.1 mg/kg im daily; some individual primates, predominately. The protocol:
(§1) Eleven adult female cynomolgus monkeys having regular and presumably ovulatory menstrual cycles were entered into the study. Body weights were determined monthly. Menstrual bleeding and spotting were recorded daily by visual inspection of external genitalia and insertion of vaginal swabs using a saline moistened cotton-tipped applicator, respectively. Blood samples were collected from femoral vessels and the serum stored for subsequent RIA of estradiol and progesterone. Coefficients of variation for these assays were: 7.4 and 11.1; and 7.0 and 10.9%, respectively, for within and between assays. The GnRH antagonist (GnRHant) used was Nal-Glu: [Ac-D2NAL, 4ClDPhe^2, D3Pal^3, Arg^5, DGlu^6(AA), DAla^10]-GnRH.
In Part I of the study, the object was to perform a brief dose-finding study that indicated residual serum estradiol levels in intact primates previously illustrating regular menstrual cycles. Specifically sought was an approximation of the minimal daily im dose of Nal-Glu sufficient to suppress circulating estradiol levels into the target range: less than 45 pg/ml but more than 35 pg/ml. Beginning on day 2 of the menstrual cycle, Nal-Glu GnRHant, suspended in sesame oil, was administered between 9 and 10 am in doses of 0.1 (n = 5) and 0.3 mg/kg (n = 6) for 14 days. Femoral blood was obtained daily under ketamine anesthesia. […]

Data set [2] has as its system ovarian estrogen secretion. The data set is described as follows: Part II individualized dose titering: RIA of serum estradiol every 10 days. It counts as in vivo, cynomolgus monkeys. The protocol:
as §1
(§2) After a 60 day wash-out interval, the Part II experimental design had two objectives: 1) attempt to titer the GnRHant dose to individual monkeys so that residual ovarian estrogen secretion was often within the target range (estradiol at 35 to 45 pg/ml) in as many of the blood samples as possible; and 2) perform periodic progesterone challenge tests wherein withdrawal bleeding indicates significant estrogen-induced endometrial proliferation (i.e. excessive estrogenic influence) versus amenorrhea (the absence of progesterone withdrawal bleeding) as an indicator that the GnRHant dose and, in turn, the tonic ovarian estrogen production was indicative of a controlled estrogenic milieu.
(§3) The design was progressive in that all eleven monkeys initially received Nal-Glu GnRHant at 0.05 mg/kg starting on day 2 of the menstrual cycle and continuing daily until results of the progesterone challenge test and estradiol levels in circulation indicated the need to raise the dose. Concurrently, a pair of progesterone-loaded silastic implants were inserted sc during GnRHant treatment from day 20 and 30, and then removed. If withdrawal menses occurred during the next week, the individual Nal-Glu dose was raised to 0.1 mg/kg daily. On GnRHant treatment day 50, the 10 day progesterone challenge test was repeated for all monkeys. Those primates who were amenorrheic remained on this dose of Nal-Glu; any "bleeders" were to be shifted to a higher dose of GnRHant at 0.2 mg/kg daily through treatment day 90, with the final progesterone challenge test given to all monkeys on days 80 to 90. Again, amenorrhea or withdrawal menses was recorded.
Femoral blood samples were collected every 10 days through the study for RIA of estradiol and progesterone.

For data set [3], the system named is estrogen-induced endometrial proliferation. The data set is described as follows: Progesterone challenge test (withdrawal bleeding versus amenorrhea, spotting). It counts as in vivo, cynomolgus monkeys. The protocol: as §1, §2, §3
For definition, withdrawal bleeding was scored when blood was on the external genitalia for two or more consecutive days within the week following progesterone withdrawal. Spotting was scored when blood was evident only by coloration of the cotton swab upon insertion into the vagina.

In “in vivo”, `CC(=O)[C@H]1CC[C@H]2[C@@H]3CCC4=CC(=O)CC[C@]4(C)[C@H]3CC[C@]12C` [progesterone] yielded a concentration at 240 h of 6.4 ± 0.6 ng/mL.
With “D-Ac-D-2-Nal^1-DpClPhe^2-D-3-Pal^3-Ser^4-NiLys^5-D-NicLys^6-Leu^7-ILys^8-Pro^9-D-Ala^10 [antide]”, the “effect on the pituitary-ovarian axis” value in the data set with pituitary-ovarian axis is “immediate and sustained inhibition of the pituitary-ovarian axis”.
In data set [1], “[Ac-D2NAL, 4ClDPhe^2, D3Pal^3, Arg^5, DGlu^6(AA), DAla^10]-GnRH [Nal-Glu]” returned a serum estradiols of under 25 pg/mL. The “mean serum estradiol levels” value in data set [2] (0.05 mg/kg im daily, the two primates with withdrawal amenorrhea, target zone 35 to 45 pg/ml) is reported as “in or near the target zone”. The estradiol suppression entry in data set [2] (0.2 mg/kg im daily, the lone resistant monkey) is recorded as “under 20 pg/ml”. Also, the “mean circulating estradiol levels” value in data set [2] (at third progesterone challenge test, all females except the one given 0.2 mg/kg im daily, target zone 35 to 45 pg/ml) was “in or near the target zone”. Moreover, the “mean serum estradiol concentrations” value in data set [2] (dose raised to 0.1 mg/kg im daily from day 31, 8 monkeys) is reported as “approximately 40 pg/ml”. In addition, in data set [3] (second progesterone challenge test, only the monkeys raised to 0.1 mg/kg im daily), the “monkeys achieving withdrawal amenorrhea” value is given as 8 of 9. Further, the “Incidence of Spotting” value came to 13 days in data set [3] (week of progesterone withdrawal days 31-37), 12 days in data set [3] (week of progesterone withdrawal days 61-67) and 0 days in data set [3] (week of progesterone withdrawal days 91-97). In addition, the “Amenorrhea Achieved” value was “two and 2/11” in data set [3] (week of progesterone withdrawal days 31-37, first challenge, all eleven monkeys on 0.05 mg/kg im daily); 10/11 in data set [3] (week of progesterone withdrawal days 61-67, second challenge, 0.05 or 0.1 mg/kg im daily); “eleven and 11/11” in data set [3] (week of progesterone withdrawal days 91-97, third challenge, 0.05, 0.1 or 0.2 mg/kg im daily).

The values are drawn from patent publication EP0769956B1, “USE OF A GnRH ANTAGONIST FOR THE PREPARATION OF A MEDICAMENT FOR THE TREATMENT OF GONADAL-STEROID CONDITIONS” (THE MEDICAL COLLEGE OF HAMPTON ROADS, priority 1994, dated 2000).
